Read-outs that look alike come from different tables or passages of the source.
System: HCV 1b genotype replicon
Test: HCV replicon assay (qRT-PCR or luciferase), genotype-1b replicon
Type: cell-based
Conditions: Hepatitis C virus, HCV 1b replicon
Description: HCV replicon cell lines (kindly provided by R. Bartenschlager) isolated from colonies as described by Lohman et. al. (Lohman et al. (1999) Science 285: 110-113, expressly incorporated by reference in its entirety) and used for all experiments. The HCV replicon has the nucleic acid sequence set forth in EMBL Accession No.: AJ242651, the coding sequence of which is from nucleotides 1801 to 8406.
The coding sequence of the published HCV replicon was synthesized and subsequently assembled in a modified plasmid pBR322 (Promega, Madison, Wis.) using standard molecular biology techniques. One replicon cell line (“SGR 11-7”) stably expresses HCV replicon RNA which consists of (i) the HCV 5′UTR fused to the first 12 amino acids of the capsid protein, (ii) the neomycin phosphotransferase gene (neo), (iii) the IRES from encephalomyocarditis virus (EMCV) and (iv) HCV NS2 to NS5B genes and the HCV 3′UTR. Another replicon cell line (“Huh-luc/neo-ET”) described by Vrolijk et. al. (Vrolijk et. al. (2003) Journal of Virological Methods 110:201-209, expressly incorporated by reference in its entirety) stably expresses HCV replicon RNA which consists of (i) the HCV 5′UTR fused to the first 12 amino acids of the capsid protein, (ii) the firefly luciferase reporter gene, (iii) the ubiquitin gene, (iv) the neomycin phosphotransferase gene (neo), (v) the IRES from encephalomyocarditis virus (EMCV) and (vi) HCV NS3 to NS5B genes that harbor cell culture adaptive mutations (E1202G, T12801, K1846T) and the HCV 3′UTR.
These cell lines are maintained at 37° C., 5% CO2, 100% relative humidity in DMEM (Cat#11965-084, Invitrogen), with 10% fetal calf serum (“FCS”, Invitrogen), 1% non-essential amino acids (Invitrogen), 1% of Glutamax (Invitrogen), 1% of 100× penicillin/streptomycin (Cat#15140-122, Invitrogen) and Geneticin (Cat#10131-027, Invitrogen) at 0.75 mg/ml or 0.5 mg/ml for 11-7 and Huh-luc/neo-ET cells, respectively.
EC50 values of single agent compounds and combinations are determined by HCV RNA detection using quantitative RT-PCR, according to the manufacturer's instructions, with a TAQMAN® One-Step RT-PCR Master Mix Reagents Kit (Cat# AB 4309169, Applied Biosystems) on an ABI Model 7500 thermocycler. The TAQMAN primers to use for detecting and quantifying HCV RNA obtained from Integrated DNA Technologies. HCV RNA is normalized to GAPDH RNA levels in drug-treated cells, which is detected and quantified using the Human GAPDH Endogenous Control Mix (Applied Biosystems, AB 4310884E). Total cellular RNA is purified from 96-well plates using the RNAqueous 96 kit (Ambion, Cat# AM1812). Chemical agent cytotoxicity is evaluated using an MTS assay according to the manufacturer's directions (Promega).
Since clinical drug resistance often develops in viral infections following single agent therapies, there is a need to assess the additive, antagonistic, or synergistic properties of combination therapies. We used the HCV replicon system to assess the potential use of the compound of the present invention or in combination therapies with Interferon alpha, cyclosporine analogs and inhibitors targeting other HCV proteins. The acute effects of a single or combinations of drugs are studied in the “Huh-luc/neo-ET” replicon with each chemical agent titrated in an X or Y direction in a 6 point two-fold dilution curve centered around the EC50 of each drug. Briefly, replicon cells are seeded at 7,000 cells per well in 90 ul DMEM (without phenol red, Invitrogen Cat.#31053-036) per well with 10% FCS, 1% non-essential amino acids, 1% of Glutamax and 1% of 100× penicillin/streptomycin and incubated overnight at 37° C., 5% CO2, 100% relative humidity. […]

[1] = read-out: Genotype-1b replicon EC50 Range
[2] = read-out: Genotype-1b replicon EC50

Structure (SMILES) | EC50 [1] [nM] | EC50 [2] [nM]
C=C1C[C@@H](c2nc(-c3ccc(C#Cc4ccc5[nH]c([C@@H]6C[C@@]7(CC=CCO7)CN6C(=O)[C@@H](NC(=O)OC)C(C)C)nc5c4)cc3)c[nH]2)N(C(=O)[C@@H](NC(=O)OC)C(C)C)C1 [Example 327] | < 0.01 | 
C=C1C[C@@H](c2nc(-c3ccc(C#Cc4ccc5[nH]c([C@@H]6C[C@]7(CCCOC7)CN6C(=O)[C@@H](NC(=O)OC)C(C)C)nc5c4)cc3)c[nH]2)N(C(=O)[C@@H](NC(=O)OC)C(C)C)C1 [Example 329] | < 0.01 | 
C=C1C[C@@H](c2nc(-c3ccc(C#Cc4ccc5[nH]c([C@@H]6C[C@]7(CCOC7)CN6C(=O)[C@@H](NC(=O)OC)C(C)C)nc5c4)cc3)c[nH]2)N(C(=O)[C@@H](NC(=O)OC)C(C)C)C1 [Example 323] | < 0.01 | 0.0092
C=C1C[C@@H](c2nc(-c3ccc(C#Cc4ccc5[nH]c([C@@H]6CC7(CC7)CN6C(=O)[C@@H](NC(=O)OC)C(C)C)nc5c4)cc3)c[nH]2)N(C(=O)[C@@H](NC(=O)OC)C(C)C)C1 [Example 325] | < 0.01 | 0.0059
CON=C1C[C@@H](c2nc3cc(C#Cc4ccc(-c5c[nH]c([C@@H]6CCCN6C(=O)[C@@H](NC(=O)OC)C(C)C)n5)cc4)ccc3[nH]2)N(C(=O)[C@@H](NC(=O)OC)C(C)C)C1 [Example 316] | < 0.01 | 
C=C1C[C@@H](c2nc3cc(C#Cc4ccc(-c5c[nH]c([C@@H]6CCCN6C(=O)[C@@H](NC(=O)OC)C(C)C)n5)cc4)ccc3[nH]2)N(C(=O)[C@@H](NC(=O)OC)C(C)C)C1 [Example 83] | < 0.01 | 0.0057
C=C1C[C@@H](c2nc(-c3ccc(C#Cc4ccc5[nH]c([C@@H]6C[C@@]7(CCOC7)CN6C(=O)[C@@H](NC(=O)OC)C(C)C)nc5c4)cc3)c[nH]2)N(C(=O)[C@@H](NC(=O)OC)C(C)C)C1 [Example 321] | 0.01 to 1 | 
C=C1C[C@@H](c2nc(-c3ccc(C#Cc4ccc5[nH]c([C@@H]6C[C@@]7(CCCO7)CN6C(=O)[C@@H](NC(=O)OC)C(C)C)nc5c4)cc3)c[nH]2)N(C(=O)[C@@H](NC(=O)OC)C(C)C)C1 [Example 319] | 0.01 to 1 | 
COC(=O)N[C@H](C(=O)N1CCC[C@H]1c1nc(-c2ccc(C#Cc3ccc4[nH]c([C@@H]5CC(=C6CC6)CN5C(=O)[C@@H](NC(=O)OC)C(C)C)nc4c3)cc2)c[nH]1)C(C)C [Example 334] | 0.01 to 1 | 0.013
C=C1C[C@@H](c2nc(-c3ccc(C#Cc4ccc5[nH]c([C@@H]6CCCN6C(=O)[C@@H](NC(=O)OC)C(C)C)nc5c4)cc3)c[nH]2)N(C(=O)[C@@H](NC(=O)OC)C(C)C)C1 [Example 300] | < 0.01 | 0.0044
C=C1C[C@@H](c2nc(-c3ccc(C#Cc4ccc5[nH]c([C@@H]6CC(=C)CN6C(=O)[C@@H](NC(=O)OC)C(C)C)nc5c4)cc3)c[nH]2)N(C(=O)[C@@H](NC(=O)OC)C(C)C)C1 [Example 336] | < 0.01 | 0.0064
C=C1C[C@@H](c2nc(-c3ccc(-c4ccc(-c5c[nH]c([C@@H]6CCCN6C(=O)[C@@H](NC(=O)OC)C(C)C)n5)cc4)cc3)c[nH]2)N(C(=O)[C@@H](NC(=O)OC)C(C)C)C1 [Example 252] | 0.01 to 1 | 0.0112
C=C1C[C@@H](c2nc(-c3ccc(C#Cc4ccc5[nH]c([C@@H]6C[C@@]7(CCCOC7)CN6C(=O)[C@@H](NC(=O)OC)C(C)C)nc5c4)cc3)c[nH]2)N(C(=O)[C@@H](NC(=O)OC)C(C)C)C1 [Example 331] | 0.01 to 1 | 0.0137
